Laboratory results published in patent publication US20130046012A1, “NEW COMPOUNDS, SYNTHESIS AND USE THEREOF IN THE TREATMENT OF PAIN” (LACER, S.A., priority 2010, published 2013).
Where a name gives a salt, the structure may show the parent alone.

Tests used:
Male Swiss mice [1] = assay: Hot plate method (acute pain model); assay type: in vivo; settings: Mus musculus, oral, 30 minutes before test, hot surface 55° C, dose producing 50% MPE, cutoff 60 seconds, read-out: HOT PLATE (ED50, p.o)
Method: The activity of some of the products was also tested using an acute pain model by using the hot plate method.
The method that was used is described by Eddy N. B. and Leimbach D. (J. Pharm. Exp. Ther. 107: 385-393, 1953). The analgesic effect of the products was evaluated analyzing the behavior of the animals on a hot surface at 55° C±1° C.
Male Swiss mice weighing 20-25 g were used. The compounds being tested were administered orally 30 minutes before starting the test.
The process consisted of placing the animals on the plate and keeping them in a Plexiglas cylinder 25 cm high and 21 cm […]. The time the animals took to jump off the hot surface was determined The animals were selected before starting the test so that those that took longer than 10 seconds to jump off (predrug latency) were not included in the group that would receive treatment.
A predrug latency time was determined before product treatment in all animals and 30 minutes after administering the product being tested, the test was repeated and the maximum time it took the animals to jump off (test latency) was again recorded.
The results are expressed in the table as ED50 that was calculated from % MPE (Maximum Posible Effect) determined as follows:
% MPE=100×(test latency−predrug latency)/(cutoff time−predrug latency)
The % MPE was measured for each compound at different dose levels (μmol/kg) and the ED50 values (dose of compound that produced 50% MPE) were obtained using a computer assisted linear regression analysis of the dose-response curve, including an analysis of variance test for linearity.

Male Swiss mice [2] = assay: Formalin test (analgesic activity, licking time of the injected paw); assay type: in vivo; settings: p.o. 10 min before 5% formalin injection into hind paw, second phase (15-60 min), % inhibition of licking vs. control, Litchfield and Wilcoxon; for ED50: Mus musculus, po, read-out: FORMALIN TEST (ED50 p.o) Phase II
Method: The pharmacological activity of the products of the present invention was tested in vivo in formalin test model, which is known to evaluate neuropathic and inflammatory pain in animals.
The formalin test was introduced as a model of tonic pain in 1977, and has since […] been used extensively in rats and mice. In rats, formalin generates an initial phase of activity (5-10 min, phase 1), a quiescent interphase (5-10 min), and a second phase of activity (lasting 60-90 min, phase 2), and this is seen with spontaneous behaviors, firing of afferent neurons, and activity in dorsal horn neurons. Both active phases involve ongoing peripheral afferent neural activity; inflammation contributes to phase 2 activity and the interphase results from active inhibition. Responses are concentration dependent between 0.25% and 2.5%, plateau from 2.5% to 5%, and can decline at higher concentrations. Formalin also results in tissue edema, and this is longer lasting. Responses to formalin up to 2.5% are predominantly neurogenic, while at higher concentrations, responses involve a further prominent inflammatory component. Within the spinal cord, formalin increases c-Fos expression in neurons and causes activation of microglia, and these may contribute more prominently to longer term changes. Acute responses (to 90 min) may represent a model of ongoing acute pain involving inflammation and aspects of central sensitization, while longer term responses (days, weeks) may represent a model of changes involved in persistent pathological pain.
Male Swiss mice (weight range, 16-20 g) were used (n=6-8 per group).Mice were fasted for 3 hours before the administration of oral treatment with free access to drinking water before the experiment. All experiments were conducted in accordance with the “Guidelines on Ethical Standards for Investigation of Experimental Pain in Animals
Mice were housed in clear plastic chambers with a mirror placed at a 45° angle to allow an unobstructed view of the paws. Mice were injected into the dorsal surface of hind paw with 20 μl of dilute formalin (5%) using a 30-gauge needle. Treatments were administrated p.o. 10 min before formalin injection.
Nociceptive behavior was quantified measuring time spent licking the injected paw after injection.
For evaluation of antinociceptive effect of a potential drug for neuropathic pain, the quantization of the second phase of the test (15-60 min) is the most important. Controls animals were observed under identical conditions without receiving treatments before formalin injection.
For each dose of compound given the % inhibition of licking vs. control animals were calculated. ED50 was calculated using the method of Litchfield and Wilcoxon. At the end of the experiments, mice were humanely euthanized with a dose of sodium pentobarbital (150 mg/kg i.p.).

Compound | ED50 (Male Swiss mice [1]) [µmol/kg] | ED50 (Male Swiss mice [2]) [µmol/kg] | FORMALIN TEST (ED50 p.o) Phase II (Male Swiss mice [2]) [µmol/kg]
COc1cccc([C@@]2(O)CCCC[C@@H]2CN(C)C)c1 (relative stereo) [Tramadol hydrochloride, (1R,2R)-rel-2-[(dimethylamino)methyl]-1-(3-methoxyphenyl) cyclohexanol, reference compound] | 66 | 139 | –
COc1cccc([C@@]2(O)CCCC[C@@H]2CN(C)C)c1 (single isomer, unassigned) [Tramadol Enantiomer R,R, reference compound] | – | – | 126.6
COc1cccc([C@]2(O)CCCC[C@H]2CN(C)C)c1 (single isomer, unassigned) [Tramadol Enantiomer S,S, reference compound] | – | – | 233.3
CN(C)CC1CCCCC1(O)c1cccc(OC(=O)CC2(CNC(=O)OC(C)(C)C)CCCCC2)c1 (centres unmarked) [Product of example 1, (1R2R, 1S25)-3-(2-((dimethylamino)methyl)-1-hydroxycyclohexyl)phenyl 2-(1-((tert-butoxycarbonylamino)methyl)cyclohexyl)acetate] | 35.7 | 39.9 | –
CN(C)C[C@H]1CCCC[C@]1(O)c1cccc(OC(=O)CC2(CNC(=O)OC(C)(C)C)CCCCC2)c1 [Product of example 2] | 8 | 17.2 | –
CN(C)C[C@@H]1CCCC[C@@]1(O)c1cccc(OC(=O)CC2(CNC(=O)OC(C)(C)C)CCCCC2)c1 [Product of example 3] | – | 65.9 | –
CCOC(=O)NCC1(CC(=O)Oc2cccc(C3(O)CCCCC3CN(C)C)c2)CCCCC1 (centres unmarked) [Product of example 4, (1R2R, 1S2S) 3-(2-((dimethylamino)methyl)-1-hydroxycyclohexyl)phenyl 2-(1-((ethoxycarbonylamino)methyl)cyclohexyl)acetate] | 26.3 | 19 | –
CCOC(=O)NCC1(CC(=O)Oc2cccc([C@@]3(O)CCCC[C@@H]3CN(C)C)c2)CCCCC1 [Product of example 5, 3-((1R,2R)-2-((dimethylamino)methyl)-1-hydroxycyclohexyl)phenyl 2-(1-((ethoxycarbonylamino)methyl)cyclohexyl)acetate] | – | 6 | –
CCOC(=O)NCC1(CC(=O)Oc2cccc([C@]3(O)CCCC[C@H]3CN(C)C)c2)CCCCC1 [Product of example 13, 3-((1S,2S)-2-((dimethylamino)methyl)-1-hydroxycyclohexyl)phenyl 2-(1-((ethoxycarbonylamino)methyl)cyclohexyl)acetate] | – | 28 | –
COC(=O)NCC1(CC(=O)Oc2cccc(C3(O)CCCCC3CN(C)C)c2)CCCCC1 (centres unmarked) [Product of example 14, (1R2R, 1S2S) 3-(2-((dimethylamino)methyl)-1-hydroxycyclohexyl)phenyl 2-(1-((methoxycarbonylamino)methyl)cyclohexyl)acetate] | – | 44.5 | –
CC(C)OC(=O)NCC1(CC(=O)Oc2cccc(C3(O)CCCCC3CN(C)C)c2)CCCCC1 (centres unmarked) [Product of example 15, (1R2R, 1S2S) 3-(2-((dimethylamino)methyl)-1-hydroxycyclohexyl)phenyl 2-(1-((isopropoxycarbonylamino)methyl)cyclohexyl)acetate] | – | 57.9 | –
CN(C)CC1CCCCC1(O)c1cccc(OC(=O)CC2(CNC(=O)OCc3ccccc3)CCCCC2)c1 (centres unmarked) [Product of example 16, (1R2R, 1S2S)3(2-((dimethylamino)methyl)-1-hydroxycyclohexyl)phenyl 2-(1-((benzyloxycarbonylamino)methyl)cyclohexyl)acetate] | – | 37.9 | –
CN(C)CC1CCCCC1(O)c1cccc(OC(=O)CC2(CNC(=O)Oc3ccccc3)CCCCC2)c1 (centres unmarked) [Product of example 17, (1R2R, 1S2S)3(2-((dimethylamino)methyl)-1-hydroxycyclohexyl)phenyl 2-(1-((phenoxycarbonylamino)methyl)cyclohexyl)acetate] | – | 39 | –
CC(=O)NCC1(CC(=O)Oc2cccc(C3(O)CCCCC3CN(C)C)c2)CCCCC1 (centres unmarked) [Product of example 18, (1R2R, 1S2S)3(2-((dimethylamino)methyl)-1-hydroxycyclohexyl)phenyl 2-(1-(acetamidomethyl)cyclohexyl)acetate] | – | 30.4 | –
CCOC(=O)NCC1(CC(=O)Oc2cccc(C3=C(CN(C)C)CCCC3)c2)CCCCC1 [Product of example 19, 3-(2-((dimethylamino)methyl)cyclohex-1-enyl)phenyl 2-(1-((ethoxycarbonylamino)methyl)cyclohexyl)acetate] | – | 62.7 | –
CCOC(=O)NCC1(CC(=O)Oc2cccc(C3=CCCCC3CN(C)C)c2)CCCCC1 (centres unmarked) [Product of example 20, 3-(6-((dimethylamino)methyl)cyclohex-1-enyl)phenyl 2-(1-((ethoxycarbonylamino)methyl)cyclohexyl)acetate] | – | 59.7 | –
CCOC(=O)NCC1(CC(=O)Oc2cccc([C@@H](CC)[C@@H](C)CN(C)C)c2)CCCCC1 [Product of example 22, 3-((2R,3S)-1-(dimethylamino)-2-methylpentan-3-yl)phenyl 2-(1-((ethoxycarbonylamino)methyl)cyclohexyl)acetate] | – | 30.4 | –
CCOC(=O)NC[C@H](CC(=O)Oc1cccc(C2(O)CCCCC2CN(C)C)c1)CC(C)C (stereo partly drawn) [Product of example 23, (1R2R, 1S2S)-(S)-3-(2-((dimethylamino)methyl)-1-hydroxycyclohexyl)phenyl 3-((ethoxycarbonylamino)methyl)-5-methylhexanoate] | – | 75.2 | –
CCOC(=O)NC[C@H](CC(=O)Oc1cccc([C@@]2(O)CCCC[C@@H]2CN(C)C)c1)CC(C)C [Product of example 24, (S)-3-((1R,2R)-2-((dimethylamino)methyl)-1-hydroxycyclohexyl)phenyl 3-((ethoxycarbonylamino)methyl)-5-methylhexanoate] | – | 56.9 | –
